The subject of one data set is A/J mice. The data set can be described thus: Local (BALF) and systemic cytokine induction after intranasal administration. It is filed as in vivo, mouse. The protocol:
1V270 induces local inflammation by pulmonary administration. To study the ability of phospholipid conjugated TLR7 to initiate the local inflammation, 6 to 8-week old female A/J mice were intranasally administered with 1V270 (0.5, 1, 2 or 4 nmol per animal) in 5% DMSO in PBS. Mice were sacrificed two hours after the administration and serum and bronchial lavage fluid (BALF) were collected. The levels of IL-6, IL-12 and TNFα were determined by Luminex beads assay.
A/J mice received 10 nmol/animal 1V270 intranasally and BALF were collected 24, 48, and 72 hours after the administration. 1V270 could induce IL-12 and TNFα up to 48 hours (FIG. 10).
BALF and plasma were collected 24 hours later and cytokine levels determined by multiplex luminex assay.

The target of another data set is T1, TLR7 (Homo sapiens, UniProt Q9NYK1).
T1 sequence (Q9NYK1 27-1049): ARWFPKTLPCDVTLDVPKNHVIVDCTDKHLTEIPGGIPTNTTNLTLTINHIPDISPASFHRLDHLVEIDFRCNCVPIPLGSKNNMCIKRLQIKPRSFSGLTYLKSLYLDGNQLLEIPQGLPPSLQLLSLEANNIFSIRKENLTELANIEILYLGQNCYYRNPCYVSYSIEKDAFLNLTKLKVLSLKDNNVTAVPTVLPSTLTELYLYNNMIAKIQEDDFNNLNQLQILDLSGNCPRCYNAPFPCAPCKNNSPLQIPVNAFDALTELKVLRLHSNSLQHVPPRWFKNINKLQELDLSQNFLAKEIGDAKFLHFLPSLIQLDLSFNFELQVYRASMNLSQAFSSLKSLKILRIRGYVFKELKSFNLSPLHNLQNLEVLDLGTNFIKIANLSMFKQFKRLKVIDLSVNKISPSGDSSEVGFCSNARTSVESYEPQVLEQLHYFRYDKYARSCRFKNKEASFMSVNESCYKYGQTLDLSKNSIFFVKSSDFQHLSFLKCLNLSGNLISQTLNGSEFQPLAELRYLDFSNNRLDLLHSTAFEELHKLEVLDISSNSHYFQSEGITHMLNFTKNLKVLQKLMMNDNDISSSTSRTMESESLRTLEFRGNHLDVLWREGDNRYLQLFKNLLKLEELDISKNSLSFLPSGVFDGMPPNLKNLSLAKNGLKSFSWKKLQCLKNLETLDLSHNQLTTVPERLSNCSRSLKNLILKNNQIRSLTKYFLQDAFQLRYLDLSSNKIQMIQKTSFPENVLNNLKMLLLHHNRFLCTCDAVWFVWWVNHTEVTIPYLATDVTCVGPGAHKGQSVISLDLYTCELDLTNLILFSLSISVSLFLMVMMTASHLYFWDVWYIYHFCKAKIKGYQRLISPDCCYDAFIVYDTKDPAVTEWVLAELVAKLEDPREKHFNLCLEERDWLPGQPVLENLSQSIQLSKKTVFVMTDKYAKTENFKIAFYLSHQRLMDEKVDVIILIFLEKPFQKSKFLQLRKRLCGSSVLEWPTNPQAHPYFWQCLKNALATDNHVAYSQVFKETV
The data set can be described thus: Cytokine induction (IL-6, IFNalpha1; Luminex) in human PBMC. Type of data set: cell-based. The conditions noted are these: 18 hours, IL-6 (FIG. 3A).

The test system of another data set is C57BL/6 mice. The data set is described as follows: In vivo evaluation of adverse effects after OVA plus TLR7 conjugate immunization. Particulars: OVA mixed with conjugate, 10 nmoles per mouse.
The nature of data set [1]: Nanoparticle size and stability in PBS (Malvern Zetasizer). Type of data set: physicochemical. The conditions noted are these: 50 μM or 100 μM. Here is the method:
1V270 was dissolved in Phosal 50 PG (Phospholipid Gmbh, Cologne, Germany) to make a 20× concentrated solution. The Phosal 50 PG-1V270 mixture was further diluted (1:19) with nanopure water to make a 5% Phosal 50 PG:water suspension. The suspension was vortexed vigorously and sonicated in a sonicating bath for 10 minutes. The suspension was further sonicated with a probe sonicater (Branson Sonifier Cell Disrupter 185) at 30% power for a total of 30 seconds at 10 second intervals with 10 seconds rest between so as to not overheat the suspension. Finally, the suspension was passed through a 100 nm filter with syringe extruder a total of 10 times back and forth. The final nanoparticles were analyzed with a Malvern Zetasizer to check size distribution. The resulting particles may be referred to as nanoliposomes (a submicron bilayer lipid vesicle) (see Chapter 2 by Mozafari in: Liposomes, Methods in Molecular Biology, vol. 605, V. Weissing (ed.), Humana Press, the disclosure of which is incorporated by reference herein). Nanoliposomes provide more surface area and may increase solubility, bioavailability and targeting.
UV-1V270 particles were diluted in PBS to 50 μM (A) or 100 μM (B) and particle size measured over time. […] The particle size of UV-1V270 in PBS was relatively constant with an average of about 110 nm regardless of concentration.

A further data set in a line: Solubility. Type of data set: physicochemical.

Where “and” joins values, the source holds several entries; their conditions need not be identical. Identical values can stand only once.

For the compound `CCCCCCCC/C=C\CCCCCCCC(=O)OCC(COP(=O)(O)OCCNC(=O)c1ccc(Cn2c(=O)[nH]c3c(N)nc(OCCOC)nc32)cc1)OC(=O)CCCCCCC/C=C\CCCCCCCC` (stereo not shown) [Compound 6, 2-(4-((6-amino-2-(2-methoxyethoxy)-8-oxo-7H-purin-9(8H)-yl)methyl)benzamido)ethyl 2,3-bis(oleoyloxy)propyl phosphate], in the data set with A/J mice (i.n. 10 nmol/animal), the “persistence of IL-12 and TNFα induction in BALF” value is “up to 48 hours”. The “local proinflammatory cytokines (IL-6, IL-12, TNFα) in BALF” value in the data set on A/J mice (i.n. 2 to 4 nmol in 5% DMSO in PBS, two hours after administration) is “induced local proinflammatory cytokines in the BALF”. The “localized versus systemic cytokine release” value with A/J mice (i.n., BALF and plasma 24 hours later) was “promoted localized cytokine release with minimal systemic side effects”. Further, the “BALF cytokine levels compared with serum” value with A/J mice (i.n., two hours after administration) is reported as “higher than those in the serum”. For the same compound, the “order of TLR7 conjugate potency” value at TLR7 was “(4b)>(6)>(9)>/=SM>(8) and 4b>6>9>SM=8”. For the same compound, the “average body weights versus mice injected saline” value in the data set with C57BL/6 mice was “No significant differences”. Also, the “nanoparticle stability over time” value in data set [1] was “generally stable over time”. The “particle size, average diameter” value in data set [1] (regardless of concentration) is on record as “about 110 nm”. In addition, in “Solubility” (aqueous solution / suitable solvents for testing), the “solubility, in words” value is on record as “difficulty in dissolution”. In “Solubility” (in PBS), the “upper limit of solubility” value was around 100 µM.

(Values after US20130202629A1, “USES OF PHOSPHOLIPID CONJUGATES OF SYNTHETIC TLR7 AGONISTS” (The Regents of the University of California, priority 2010, published 2013).)
